Measured values published in ChEMBL document CHEMBL4033609, “Naphthablins B and C, Meroterpenoids Identified from the Marine Sediment-Derived Streptomyces sp. CP26-58 Using HeLa Cell-Based Cytological Profiling” (J Nat Prod, 2017).
Calls of active or inactive are those of the source. No cut-off for these calls is given here.

Columns and labels:
HeLa [1] = assay: Growth inhibition of human HeLa cells at 33 uM; type: functional; details: read-out: GI
HeLa [2] = assay: Cytotoxic activity against human HeLa cells at 1.47 uM by cytological profiling assay; type: functional, cell-based
HeLa [3] = assay: Cytotoxic activity against human HeLa cells at 0.295 uM by cytological profiling assay; type: functional, cell-based
HeLa [4] = assay: Cytotoxic activity against human HeLa cells at 0.382 uM by cytological profiling assay; type: functional, cell-based
HeLa [5] = assay: Cytotoxic activity against human HeLa cells at 1.91 uM by cytological profiling assay; type: functional, cell-based
HeLa [6] = assay: Cytotoxic activity against human HeLa cells; type: functional, cell-based
HeLa [7] = assay: Cytotoxic activity against human HeLa cells at 1.25 to 10 uM by cytological profiling assay; type: functional, cell-based

## C=CC(C)(CO)c1c(O)cc2c(c1O)C(=O)C1=C(C2=O)[C@@H]2C[C@@H](C)[C@@H](OC(=O)C(C)C)C[C@@H]2C(C)(C)O1 (some centres undefined)
HeLa [1]
  inhibition of growth at 33 µM: 19%

## C[C@H](CCC(=O)O)C[C@H](C)C[C@H](C)C(=O)/C=C(\O)[C@H](C)C[C@H](C)C/C=C/[C@@H](C)[C@@H](O)[C@@H](C)[C@@H](O)C[C@@H]1CC[C@@](C)([C@H]2CC[C@@](C)([C@@H](C)O)O2)O1
HeLa [2]
  Activity: Active
HeLa [3]
  Activity: Active

## CC(C)C(=O)O[C@H]1C[C@H]2[C@@H](C[C@H]1C)C1=C(OC2(C)C)C(=O)c2c(cc(O)c3c2O[C@@H]2[C@@H](O)OC[C@]32C)C1=O
HeLa [1]
  inhibition of growth at 33 µM: 32%

## CNc1ccc2oc(C[C@H]3O[C@@]4(CC[C@H]3C)O[C@H]([C@H](C)C(=O)c3ccc[nH]3)[C@H](C)C[C@H]4C)nc2c1C(=O)O
HeLa [4]
  Activity: Active
HeLa [5]
  Activity: Active

## CO[C@@H](C)[C@H]1C[C@H](C)[C@H]([C@@H](C)/C=C/[C@@H]2CC[C@@H](C)[C@H](/C(=C/[C@H]3CCC[C@@H](C)[C@@H]3[C@H](C)C(=O)C3=C(O)COC3=O)CO)O2)O1 [TETRONASIN 5930]
HeLa [6]
  IC50: 0.23 µM
HeLa [7]
  Activity: Active

## CCC(C)C(=O)O[C@H]1C[C@H]2[C@@H](C[C@H]1C)C1=C(OC2(C)C)C(=O)c2c(cc(O)c3c2O[C@@H]2[C@@H](O)OC[C@]32C)C1=O (some centres undefined)
HeLa [1]
  inhibition of growth at 33 µM: 25%
